The target of data set [1] is T1, cyclophilin A (Cyp A) (Homo sapiens, UniProt P62937).
T1 construct: purchased Sigma C3805
The experiment in a line: Protease-free PPIase assay, cyclophilin A. Type of data set: biochemical. An outline of the steps:
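Protease-free cis-trans isomerisation: 2 nM recombinant human cyclophilin A with 60 μM succinimide-peptide substrate in 35 mM HEPES pH 7.8 plus DTT, at 10.0 °C, max 0.5% DMSO. Absorbance at 330 nm was fitted to first-order kinetics, background subtracted, and catalytic rates versus inhibitor concentration gave Ki.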

In data set [2] the target is cyclophilin D (Cyp D) (Homo sapiens, UniProt P30405). The data set is described as follows: Protease-free PPIase assay, cyclophilin D. Type of data set: biochemical. Put shortly:
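Cis-trans isomerization of a succinimide-peptide substrate (60 µM final) by 2 nM enzyme was followed at 330 nm in 35 mM HEPES pH 7.8 with 50 µM DTT, stirred at 10.0 °C, DMSO ≤0.5%. First-order rate constants minus background were fitted against inhibitor concentration to give Ki.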

For data set [3], the target named is T2, calcineurin/cyclophilin A (Homo sapiens, UniProt P62937+P63098+Q08209).
T2 construct: purchased Enzo Life Sciences (calcineurin, calmodulin); Sigma (CypA) BML-AK804; C3805
The experiment in a line: Calcineurin phosphatase (CaN) assay in the presence of Cyp A. Type of data set: biochemical. Particulars: inhibitor in 1:1 complex with Cyp A; read-out: CaN + CypA (IC50 in the calcineurin/cyclophilin A assay). An excerpt:
**Calcineurin Phosphatase (CaN) Assay The calcineurin phosphatase assay is a means for estimating the immunosuppressive potential of a test compound. Calcineurin is a serine-threonine protein phosphatase that on activation dephosphorylates members of the nuclear factor of activated T cells (NFAT), which are important in T lymphocyte activation. […] To investigate the immunosuppressive potential of exemplary compounds of Formula 1, which are novel cycloundecadepsipeptide compounds, their ability to inhibit calcineurin activity was measured in the presence of Cyp A. The CaN assay kit used is based on a colorimetric assay for measuring calcineurin phosphatase activity, and it is commercially available (Enzo Life Sciences and Calbiochem). Calmodulin is also required for calcineurin activity and RH phosphopeptide is used as an efficient peptide substrate for calcineurin. […] The detection of free phosphate released is based on the classic Malachite green assay. Enzo Life Sciences CaN Assay Kit: BML-AK804 2× assay buffer: 100 mM Tris, pH7.5, 200 mM NaCl, 12 mM MgCl2, 1 mM DTT, 0.05% NP-40, 1 mM CaCl2 Calmodulin (Human, Recombinant): was thawed on ice, diluted 1:50 with 2× assay buffer, and then stored on ice. Calcineurin: was thawed quickly, stored on ice immediately, diluted 1:12.5 with 1× assay buffer, and then stored on ice. R-II Substrate: 915 μL ultrapure water (UPW) was added to the 1.5 mg vial substrate to give a final concentration of 0.75 mM. Inhibitors: 2.5 mM inhibitor in 100% DMSO. Cyp A: recombinant human CypA (Sigma C3805), 1 mg/ml; Recombinant 6-his tagged CypA prepared by the Univ. of Edinburgh was also used. […] Inhibitor dilutions: inhibitor compounds were diluted in UPW in polypropylene low-binding 96 well plates at 5x the final assay concentration. For samples ‘without Cyp A’, a 4-point dilution series of the inhibitor was prepared in duplicate to obtain a final assay concentration of 10, 1, 0.1 and 0.01 μM. […] Cs A inhibitor controls were also prepared to obtain a final concentration of 10 μM Cs A with and without 10 μM Cyp A. Assay Setup: using the half area 96 well plates supplied with the kit, 10 μl UPW was added to duplicate wells to provide the non-inhibited control. 10 μl of the inhibitor or the inhibitor/Cyp A complex was added to the appropriate sample wells. 25 μl of the 2× assay buffer with CaM was added to all wells, then 5 μl of CaN was added to all wells (40 U per well final concentration) except duplicate ‘no calcineurin blank’ wells to which 5 μL 1× assay buffer was added. […] The reaction was started by the addition of 10 μl RII-peptide (0.15 mM final concentration). The reaction was allowed to proceed at 30° C. for a time period in which the reaction is linear for about 60 minutes. The reaction was then terminated by adding 100 μl of the Malachite Green reagent. […] The data were analyzed by subtracting ‘no Calcineurin blank’ from all the absorbance readings and plotting the background corrected absorbances against Log10 inhibitor concentration. A sigmoidal-dose response curve was fitted to the data using GraphPad Prism Software. […] It exerts its immunosuppressive activity by binding to cyclophilin A to form a complex, which then binds to calcineurin and thereby inhibits calcineurin activity.

The nature of data set [4]: Water solubility assay (pH 7.8 buffer). The class given is physicochemical. An outline of the steps:
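DMSO stocks were diluted into 35 mM HEPES pH 7.8 to final 0–100 μM with 1% DMSO, in triplicate. Plates were shaken 18 h at 25 °C, then precipitation was detected as increased absorbance at 650 nm. Values give the concentration (μM) at which the compound remains in solution.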

Structures are written as SMILES. In brackets after ≈: the same amount, converted by molar mass. Like-named read-outs stand apart in the source and are kept apart here. Numbered stars: 1 amine (or outer) side, 2 acyl side, 3 side chain; on linkers, the order of the positions; unused ones are H or OH. Square brackets hold non-standard residues; d marks the D form. Peptide text beside a SMILES is read from it. X2 = C[C@H](CCCc1cccc(N2CCOCC2)n1)[C@@H](O)[C@H](C(=O)[*:2])N(C)[*:1]; X5 = C[C@H](CCN1CCS(=O)(=O)CC1)[C@@H](O)[C@H](C(=O)[*:2])N(C)[*:1]; X3 = C[C@H](CCN1CC2CCC(C1)O2)[C@@H](O)[C@H](C(=O)[*:2])N(C)[*:1]; X1 = Cc1cccc(CCC[C@@H](C)[C@@H](O)[C@H](C(=O)[*:2])N(C)[*:1])n1; X4 = C[C@H](C/C=C/c1ncccn1)[C@@H](O)[C@H](C(=O)[*:2])N(C)[*:1]; d(aThr) = C[C@@H](O)[C@@H](N)C(=O)O; NMeL = CN[C@@H](CC(C)C)C(=O)O; dNMeL = CN[C@H](CC(C)C)C(=O)O; dNMeV = CN[C@@H](C(=O)O)C(C)C; Hiv = CC(C)[C@H](O)C(=O)O; Sar = CNCC(=O)O

T2 sequence (P63098 whole entry, other chains not shown): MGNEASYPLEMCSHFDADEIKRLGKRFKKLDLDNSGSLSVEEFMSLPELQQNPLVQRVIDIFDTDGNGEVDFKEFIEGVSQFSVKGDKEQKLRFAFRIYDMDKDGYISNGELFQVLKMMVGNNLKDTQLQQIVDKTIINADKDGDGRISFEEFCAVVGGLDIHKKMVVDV
T2 sequence (P62937 whole entry, other chains not shown): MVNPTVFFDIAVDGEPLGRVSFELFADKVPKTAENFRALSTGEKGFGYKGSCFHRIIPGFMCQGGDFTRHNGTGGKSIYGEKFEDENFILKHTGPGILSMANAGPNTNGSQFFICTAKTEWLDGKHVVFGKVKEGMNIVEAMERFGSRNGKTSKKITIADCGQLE
cyclophilin D (Cyp D), sequence (P30405 30-207): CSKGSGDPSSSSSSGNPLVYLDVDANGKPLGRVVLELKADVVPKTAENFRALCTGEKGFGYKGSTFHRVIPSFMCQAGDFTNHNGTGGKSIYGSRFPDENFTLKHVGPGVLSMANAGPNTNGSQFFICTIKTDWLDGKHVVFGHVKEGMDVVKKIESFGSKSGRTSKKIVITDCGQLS
T1 sequence (P62937 whole entry): as the sequence (P62937 whole entry, other chains not shown) above

Consider `CC(C)C[C@@H]1C(=O)N[C@H](CC(C)C)C(=O)N(C)[C@H](C(C)C)C(=O)N(C)[C@H]([C@H](O)[C@H](C)C/C=C/c2ncccn2)C(=O)N[C@H]([C@@H](C)O)C(=O)N(C)CC(=O)N(C)[C@@H](CC(C)C)C(=O)N[C@H](CC(C)C)C(=O)N(C)[C@H](CC(C)C)C(=O)N[C@H](C)C(=O)O[C@@H](C(C)C)C(=O)N1C` [Example 15, cyclo-{(3R,4R,5S)-4-(hydroxy)-3-methyl-5-(methylamino)-1-(pyrimidin-2-yl)-hept-1-enoic acid-Thr-Sar-MeLeu-Leu-MeLeu-Ala-D-Hiv-MeLeu-Leu-MeVal}] (cyclo([Hiv][dNMeL][dL][dNMeV][X4][d(aThr)][Sar][NMeL][dL][dNMeL][dA])), for which the Ki in data set [1] and in data set [2] was 1 to 25 nM throughout. The IC50 in data set [3] was greater than 1000 nM. The molecule also yielded a solubility at 18 h in data set [4] (pH 7.8) of 10 to 25 µM (≈ 13.1 to 32.8 µg/mL).
Take `Cc1cccc(CCC[C@@H](C)[C@@H](O)[C@@H]2C(=O)N[C@H]([C@@H](C)O)C(=O)N(C)CC(=O)N(C)[C@@H](CC(C)C)C(=O)N[C@H](CC(C)C)C(=O)N(C)[C@H](CC(C)C)C(=O)N[C@H](C)C(=O)O[C@@H](C(C)C)C(=O)N(C)[C@H](CC(C)C)C(=O)N[C@H](CC(C)C)C(=O)N(C)[C@H](C(C)C)C(=O)N2C)n1` [Example 17] (cyclo([Hiv][dNMeL][dL][dNMeV][X1][d(aThr)][Sar][NMeL][dL][dNMeL][dA])): the Ki in data set [1] and in data set [2] was 1 to 25 nM in each case. Besides, in data set [3], the IC50 is greater than 1000 nM. This molecule also came in with a solubility at 18 h in data set [4] (pH 7.8) of 10 to 25 µM (≈ 13.3 to 33.2 µg/mL).
As for `CC(C)C[C@@H]1C(=O)N[C@H](CC(C)C)C(=O)N(C)[C@H](C(C)C)C(=O)N(C)[C@H]([C@H](O)[C@H](C)CCCc2cccc(N3CCOCC3)n2)C(=O)N[C@H]([C@@H](C)O)C(=O)N(C)CC(=O)N(C)[C@@H](CC(C)C)C(=O)N[C@H](CC(C)C)C(=O)N(C)[C@H](CC(C)C)C(=O)N[C@H](C)C(=O)O[C@@H](C(C)C)C(=O)N1C` [Example 20, cyclo-[(3R,4R,5S)-4-(hydroxy)-3-methyl-5-(methylamino)-1-(6-morpholin-4-yl-pyridin-2-yl)-heptanoic acid-Thr-Sar-MeLeu-Leu-MeLeu-Ala-D-Hiv-MeLeu-Leu-MeVal]] (cyclo([Hiv][dNMeL][dL][dNMeV][X2][d(aThr)][Sar][NMeL][dL][dNMeL][dA])), the Ki in data set [1] (protease-free PPIase assay, class symbols, read-out: CypA Ki) was 1 to 25 nM; in data set [2] (protease-free PPIase assay, class symbols, read-out: CypD Ki), 1 to 25 nM. In addition, in data set [3], the IC50 is greater than 5000 nM. Further, the solubility at 18 h in data set [4] (35 mM HEPES buffer, 35 mM HEPES pH 7.8, 1% DMSO, 25° C., 18 h, concentration at which compound remains in solution, read-out: Solubility) fell in the range of 10 to 25 µM (≈ 14 to 34.9 µg/mL).
For the molecule `CC(C)C[C@@H]1C(=O)N[C@H](CC(C)C)C(=O)N(C)[C@H](C(C)C)C(=O)N(C)[C@H]([C@H](O)[C@H](C)CCN2CCS(=O)(=O)CC2)C(=O)N[C@H]([C@@H](C)O)C(=O)N(C)CC(=O)N(C)[C@@H](CC(C)C)C(=O)N[C@H](CC(C)C)C(=O)N(C)[C@H](CC(C)C)C(=O)N[C@H](C)C(=O)O[C@@H](C(C)C)C(=O)N1C` [Example 23, cyclo-[(3R,4R,5S)-4-(hydroxy)-3-methyl-5-(methylamino)-1-N-(thiomorpholine 1,1-dioxide)-hexanoic acid-Thr-Sar-MeLeu-Leu-MeLeu-Ala-D-Hiv-MeLeu-Leu-MeVal]] (cyclo([Hiv][dNMeL][dL][dNMeV][X5][d(aThr)][Sar][NMeL][dL][dNMeL][dA])), the Ki in data set [1] and in data set [2] was 1 to 25 nM throughout. Moreover, the IC50 in data set [3] was greater than 10000 nM. Besides, the solubility at 18 h in data set [4] (pH 7.8) fell in the range of 75 to 100 µM (≈ 102 to 135 µg/mL).
Turning to `CC(C)C[C@@H]1C(=O)N[C@H](CC(C)C)C(=O)N(C)[C@H](C(C)C)C(=O)N(C)[C@H]([C@H](O)[C@H](C)CCN2CC3CCC(C2)O3)C(=O)N[C@H]([C@@H](C)O)C(=O)N(C)CC(=O)N(C)[C@@H](CC(C)C)C(=O)N[C@H](CC(C)C)C(=O)N(C)[C@H](CC(C)C)C(=O)N[C@H](C)C(=O)O[C@@H](C(C)C)C(=O)N1C` [Example 22, cyclo-[(3R,4R,5S)-4-(hydroxy)-3-methyl-5-(methylamino)-1-N-(8-oxa-3-aza-bicyclo[3.2.1]octane)-hexanoic acid-Thr-Sar-MeLeu-Leu-MeLeu-Ala-D-Hiv-MeLeu-Leu-MeVal]] (cyclo([Hiv][dNMeL][dL][dNMeV][X3][d(aThr)][Sar][NMeL][dL][dNMeL][dA])), the Ki in data set [1] and in data set [2] was 1 to 25 nM in each case. For the same molecule, in data set [3], the IC50 was greater than 10000 nM. The solubility at 18 h in data set [4] (pH 7.8) lay within 25 to 50 µM (≈ 33.3 to 66.6 µg/mL).
As to `C/C=C/C[C@@H](C)[C@@H](O)[C@@H]1C(=O)N[C@H]([C@@H](C)O)C(=O)N(C)CC(=O)N(C)[C@@H](CC(C)C)C(=O)N[C@H](CC(C)C)C(=O)N(C)[C@H](CC(C)C)C(=O)N[C@H](C)C(=O)O[C@@H](C(C)C)C(=O)N(C)[C@H](CC(C)C)C(=O)N[C@H](CC(C)C)C(=O)N(C)[C@H](C(C)C)C(=O)N1C` [Example 1, Cyclo-(MeBmt-Thr-Sar-MeLeu-Leu-MeLeu-Ala-D-Hiv-MeLeu-Leu-MeVal), reference compound], the Ki in data set [1] came out at 1.7 nM; in data set [2] it was 3.2 nM. Besides, the IC50 in data set [3] is 70 nM. In data set [4] (pH 7.8), this molecule showed a solubility at 18 h of 10 to 25 µM (≈ 12.5 to 31.2 µg/mL).

The record behind these values is patent US9382295B2, “Cyclic depsipeptide compounds and their uses” (Cypralis Limited, priority 2012, dated 2016).
